Literature values as cited in patent publication US20160231323A1, “PROTECTION OF TCR SIGNALING CHAINS IN CANCER PATIENTS AND ENHANCEMENT OF CAR-T CELL THERAPY” (Batu Biologics, Inc., priority 2015, published 2016).

Key:
PGE 2 = settings: several animal models
TCR-ζ = settings: addition to co-incubation of cancer patient neutrophils with healthy lymphocytes
HIF-1 alpha = settings: results in suppressed angiogenic activity
tumors = settings: paradoxical oxidative mechanism
[1] = test system: CD8(+) effector and effector memory T cells; settings: mice given vitamin C treated DC loaded with tumor lysate
[2] = test system: sepsis-induced immune suppression; settings: animals undergoing experimental sepsis
plasma CRP = settings: 1000 mg/day for 2 months, healthy nonsmokers, versus vitamin E or placebo
[3] = test system: proliferating tumor endothelial cells
Kaposi Sarcoma = settings: oral administration
[4] = test system: markers of oxidative stress; settings: smokers
[5] = test system: constitutively activated neutrophils
[6] = test system: IFN-[…] and IL-2 production; settings: daily dose of 750 mg for 2 weeks, Duke's C and D colorectal cancer

**Q.** For `COc1ccc2c(c1)c(CC(=O)O)c(C)n2C(=O)c1ccc(Cl)cc1` [indomethacin], which metastatic progression (PGE 2) is on record?
**A.** The metastatic progression was “significantly impedes metastatic progession”.

**Q.** For catalase, which TCR-ζ downregulation (TCR-ζ) is on record?
**A.** Its TCR-ζ downregulation is “suppressed TCR-ζ downregulation”.

**Q.** For `O=C1O[C@H]([C@@H](O)CO)C(O)=C1O` [ascorbic acid], which “tumor expression of HIF-1 alpha” value (HIF-1 alpha) is on record?
**A.** Its value is “reduce tumor expression of HIF-1 alpha”.

**Q.** And the effect on tumors (tumors)?
**A.** Its effect on tumors is “direct killing effect”.

**Q.** And the “frequency of effector and effector memory T cells” value ([1]; versus control DC)?
**A.** Its value is “higher frequency”.

**Q.** And the “ex vivo killing of tumor cells by the T cells” value ([1]; versus controls)?
**A.** Its value is “increased ex vivo killing effect”.

**Q.** And the “immune suppression in experimental sepsis” value [2]?
**A.** Its value is “blocked immune suppression”.

**Q.** And the “plasma CRP levels” value (plasma CRP)?
**A.** The value was “statistically significant decrease”.

**Q.** And the “effect on proliferating tumor endothelial cells” value [3]?
**A.** Its value is “Direct suppression”.

**Q.** Which angiogenesis (Kaposi Sarcoma) does the source give for `CC(=O)N[C@@H](CS)C(=O)O` [n-acetylcysteine] here?
**A.** The angiogenesis was “blocks angiogenesis”.

**Q.** What about the “growth of Kaposi Sarcoma” value (Kaposi Sarcoma) of the same compound?
**A.** The value was “suppresses growth of Kaposi Sarcoma”.

**Q.** What about the “markers of oxidative stress” value [4] of the same compound?
**A.** Its value is “suppression of markers of oxidative stress”.

**Q.** And the “immune suppression in experimental sepsis” value [2]?
**A.** Its value is “blocked immune suppression”.

**Q.** What about the “clinical effect in sepsis” value ([5]; as a monotherapy) of the same compound?
**A.** Its value is “little clinical effect”.

**Q.** What about the “constitutively activated neutrophils in sepsis patients” value ([5]; therapeutic administration) of the same compound?
**A.** Its value is “suppression of the constitutively activated neutrophils”.

**Q.** With vitamin E as the compound, how does the “IFN-[…] and IL-2 production” value [6] read?
**A.** The value was “restoration of IFN-[…] and IL-2 production”.
